In patent EP0306160A2, “Molluscicides” (BRITISH TECHNOLOGY GROUP LIMITED, priority 1987, dated 1989):
Like-named read-outs stand apart in the source and are kept apart here.

How the values were obtained:
Format in all cases: in vivo
[1] = test system: grey field slugs, Deroceras reticulatum; experiment: Contact with coated glass plate; settings: for LC₅₀ On glass (50 min)., Mean: mean of all tests
Experimental: (§1) All laboratory tests were made with field-collected grey field slugs, Deroceras reticulatum (Pulmonata, Limacidae) and also with Arion hortensis in the weight range 0.4-0.6g. They were held in polythene bowls on wet filter paper in a controlled environment cabinet cycling 12 hours light at 15°C and 12 hours dark at 5°C. Voluntary feeding tests were made under these conditions but all other laboratory bioassays were carried out at 10°C constant temperature with an overnight pre-treatment period also at 10°C.
Groups of ten slugs were placed foot-down on sheets of glass, 10 cm x 10 cm, previously coated with an aqueous solution of suspension of test chemical and air dried to leave a deposit of known weight per unit area. Slugs were confined to a treated area for a period of 50 minutes at 10°C on plates with increasing surface loadings, then removed and held in wet filter paper-floored petri dishes with food. The number of dead slugs after seven days was recorded and the values used to calculate median lethal surface concentrations ('LC₅₀') for each compound by probit analysis.

[2] = test system: grey field slugs, Deroceras reticulatum; experiment: Contact with treated soil surface; settings: mean of all tests
Experimental: as §1
Groups of ten slugs were held in plastic seed trays, 20 x 34 cm x 5 cm deep, filled to a depth of 1 cm with standard soil, a sandy clay loam from Rothamsted Farm, with a pH in water of 5.2, previously oven-dried, sieved (2 mm mesh), and rewetted to field capacity in the trays. Test chemicals were mixed with 5g dry soil, ground together and sprinkled on to the wet soil surface. Slugs were confined to the treated surface by a 16 v pulsed DC electric fence attached to the tray sides. Trays were covered to maintain a high Relative Humidity and food was provided. Dead slugs were removed daily and the final mortality count made after 10 days.

[3] = test system: grey field slugs, Deroceras reticulatum; experiment: Stomach poison action, voluntary feeding (wheatmeal bait)
Experimental: as §1
Test chemicals were offered to slugs at a range of concentrations in a wheat-meal based formulation, groups of ten slugs being confined in 15 cm crystallising dishes containing only wet filter paper and a solid watch glass filled with 3 g (dry weight) of test bait for four 24-hour cycles […]

[4] = test system: slugs; experiment: Laboratory test, standard baits containing 1% metal ion, no alternative food (Example 17); settings: 3 replicates of 10 slugs; standard bait containing 1% metal ion
Experimental: as §1
Laboratory tests where 3 replicates of 10 slugs were confined with standard baits containing 1% metal ion in different compounds, and no alternative food supplied, gave the following results: Aluminium sulphate (Al₂(SO₄)₃): 0/10, 0/10, 0/10 killed Aluminium acetylacetonate: 10/10, 10/10, 10/10 killed (Ex 17)

[5] = test system: Deroceras reticulatum; experiment: Bait bioassay with increasing concentrations in standard bait (Examples 19-35); settings: for Kill: 4 days
Experimental: Test compounds were incorporated into a standard wheat-flour-based edible carrier containing 10% paraffin wax binder and 2.5% sucrose phagostimulant, in increasing concentrations 0, 1, 4, 7, 10, 13 and 16% a.i.
Groups of ten field-collected D. reticulatum in the weight range 400-600 mg were confined with 0.5 g DM test bait at each concentration for a period of 4 days under a regime of 12 h dark @ 5°C and 12 light @ 15°C. Weight of bait eaten and number of slugs killed were recorded. Each group of compounds was tested against a concurrently run Al(ac.ac)₃ standard bait.
In Examples 23 to 35, where six groups of ten slugs are offered bait containing 1,4,7,10,13 or 16% a.i., have been reduced to two values, (i), the total amount of a.i. ingested (mg) which gives an indication of the palatability of the compound, and (ii), the total number of slugs killed (x/60) which, with (i), gives an indication of its relative toxicity.

[6] = test system: slugs; experiment: Field comparison of baits (grass/clover), Table VII; settings: first 4 days of trial; bait 10 % ai, 2.5 % sucrose (PP pellets 6 % ai, Draza pellets 4 % ai)
From the text: In Table VII there is presented a comparison of the efficacy of present iron and aluminium chelates with metaldehyde and methiocarb under field conditions (grass/clover).

For `CC(=O)C=C(C)[O][Al]([O]C(C)=CC(C)=O)[O]C(C)=CC(C)=O` [Example 19, Tris (2,4-pentanedionato) Al III], the “LC₅₀ On glass (50 min).” value ([1]; individual tests, 50 min contact at 10°C, dead after seven days, bracketed values estimated, listed as Al^III acetylacetonate) was “(10-100)(Example 1) µg metal cm²”, the “LC₅₀ On glass (50 min)., Mean” value [1] was “(< 100) µg metal cm²” and the “LC₅₀ On soil (10 days), Mean” value [2] was 34.1 µg metal/cm². The mortality at 0.01 % ([3]; Deroceras reticulatum, po, 168 h, 0.01 % Al in wheatmeal bait, read-out: Mortality after 7 days) was 10%, the mortality at 0.03 % ([3]; Deroceras reticulatum, po, 168 h, 0.03 % Al in wheatmeal bait, read-out: Mortality after 7 days) was 10% and the mortality at 0.1 % ([3]; Deroceras reticulatum, po, 168 h, 0.1 % Al in wheatmeal bait, read-out: Mortality after 7 days) was 20%. For the same compound, the mortality at 0.3 % ([3]; Deroceras reticulatum, po, 168 h, 0.3 % Al in wheatmeal bait, read-out: Mortality after 7 days) was 40%, the mortality at 1 % ([3]; Deroceras reticulatum, po, 168 h, 1.0 % Al in wheatmeal bait, read-out: Mortality after 7 days) was 100% and the mortality at 3 % ([3]; Deroceras reticulatum, po, 168 h, 3.0 % Al in wheatmeal bait, read-out: Mortality after 7 days) was 100%. It also gave a mortality at 0.1 % ([3]; Deroceras reticulatum, po, 216 h, 0.1 % Metal in wheatmeal bait (Table III), read-out: Mortality after 9 days) of 40%, a mortality at 0.5 % ([3]; Deroceras reticulatum, po, 216 h, 0.5 % Metal in wheatmeal bait (Table III), read-out: Mortality after 9 days) of 80% and a mortality at 1 % ([3]; Deroceras reticulatum, po, 216 h, 1.0 % Metal in wheatmeal bait (Table III), read-out: Mortality after 9 days) of 80%. It also gave a mortality at 5 % ([3]; Deroceras reticulatum, po, 216 h, 5.0 % Metal in wheatmeal bait (Table III), read-out: Mortality after 9 days) of 80%, a mortality at 10 % ([3]; Deroceras reticulatum, po, 216 h, 10.0 % Metal in wheatmeal bait (Table III), read-out: Mortality after 9 days) of 80% and a mortality at 1 % ([3]; Deroceras reticulatum, po, at 1 per cent Aluminium content, non-choice test (Table II), read-out: mortality) of 100%. For the same compound, the killed [4] was 10/10, the Kill ([5]; 1 % a.i. in standard bait) was 0 x/10 and the Kill ([5]; 4 % a.i. in standard bait) was 0 x/10. For the same compound, the Kill ([5]; 7 % a.i. in standard bait) was 6 x/10, the Kill ([5]; 10 % a.i. in standard bait) was 7 x/10 and the Kill ([5]; 13 % a.i. in standard bait) was 8 x/10. For the same compound, the Kill ([5]; 16 % a.i. in standard bait) was 8 x/10.

Compound `CCC(=O)C=C(C)[O][Al]([O]C(C)=CC(=O)CC)[O]C(C)=CC(=O)CC` [Example 20, Tris (2,4-hexanedionato) Al III] has a Kill ([5]; 1 % a.i. in standard bait) of 1 x/10, a Kill ([5]; 4 % a.i. in standard bait) of 0 x/10 and a Kill ([5]; 7 % a.i. in standard bait) of 4 x/10. It also gave a Kill ([5]; 10 % a.i. in standard bait) of 1 x/10, a Kill ([5]; 13 % a.i. in standard bait) of 5 x/10 and a Kill ([5]; 16 % a.i. in standard bait) of 5 x/10.

In the case of `CCC(=O)C=C(CC)[O][Al]([O]C(=CC(=O)CC)CC)[O]C(=CC(=O)CC)CC` [Example 21, Tris (3,5-heptanedionato) Al III], the Kill ([5]; 1 % a.i. in standard bait) is reported as 1 x/10, the Kill ([5]; 4 % a.i. in standard bait) is reported as 3 x/10 and the Kill ([5]; 7 % a.i. in standard bait) is reported as 0 x/10. The Kill ([5]; 10 % a.i. in standard bait) was 1 x/10, the Kill ([5]; 13 % a.i. in standard bait) was 1 x/10 and the Kill ([5]; 16 % a.i. in standard bait) was 2 x/10.

In the case of `CC1OC(C)OC(C)OC(C)O1` (centres unmarked) [Metaldehyde], the “Total Slugs 'Dead' or 'Immobilised' (Cumulative) Total D+I” value [6] is reported as 461.

With `CNC(=O)Oc1cc(C)c(SC)c(C)c1` [Methiocarb] the “Total Slugs 'Dead' or 'Immobilised' (Cumulative) Total D+I” value [6] was 557.

For Aluminium sulphate [reference compound], the “LC₅₀ values on glass” value [1] was “around 20 µg metal cm⁻²”, the “LC₅₀ On glass (50 min)., Mean” value [1] was 20.9 µg metal cm⁻² and the “LC₅₀ On soil (10 days), Mean” value [2] was 207.4 µg metal/cm². The “Mortality after 7 days” value ([3]; 0.01 % Al in wheatmeal bait) was 1 x/10, the “Mortality after 7 days” value ([3]; 0.03 % Al in wheatmeal bait) was 2 x/10 and the “Mortality after 7 days” value ([3]; 0.1 % Al in wheatmeal bait) was 3 x/10. For the same compound, the “Mortality after 7 days” value ([3]; 0.3 % Al in wheatmeal bait) was 3 x/10, the “Mortality after 7 days” value ([3]; 1.0 % Al in wheatmeal bait) was 5 x/10 and the “Mortality after 7 days” value ([3]; 3.0 % Al in wheatmeal bait) was 2 x/10. The killed [4] was 0/10.

“Tris (1-dimethoxy-2, 4-pentanedionato) Al III [Example 29]” gave a Slugs dead ([5]; total over six groups of ten slugs offered bait containing 1,4,7,10,13 or 16% a.i.) of 14 x/10.
